Patent US10000771B2, “Nuclear targeting sequences” (Yeda Research and Development Co. Ltd., priority 2007, dated 2018)
Ends that are not written are not given here. 2GFP = dimer of GFP proteins

How the values were obtained:
SPS domain = assay: SPS phosphorylation detected by anti pSPS Ab Western blot; format: cell-based; conditions: COS7 cells; for SPS phosphorylation upon stimulation (anti pSPS Ab recognition): stimulated with VOOH, TPA, EGF or TGFβ, immunoprecipitation and Western blot
Procedure: FIGS. 4A-4I are autoradiographs characterizing SPS phosphorylation using an Ab to the phosphorylated SPS domain. FIG. 4A illustrates an elevation of pSPS detection upon stimulation. COS cells were transfected with WT-GFP-ERK2. Twenty-four hr after transfection, the cells were serum-starved for 16 hr and subsequently treated with the general stimulator VOOH (V, 100 μM Na3VO4 and 200 μM H2O2, 15 min), TPA (T, 250 nM, 15 min), EGF (E, 50 ng/ml for 15 min), or left untreated (NT). The GFP-ERK2 was immunoprecipitated with anti GFP Ab, extensively washed, and the IP was then subjected to Western blotting with anti phospho SPS-ERK (αphoSPS-ERK) and anti general ERK (αgen-ERK) Abs. FIG. 4B is a time course of SPS phosphorylation. COS7 cells overexpressing WT-GFP-ERK2 were serum starved followed by EGF stimulation for the indicated time points. The lysates were then subjected to Western blot analysis as in FIG. 4A. FIGS. 4C-D. GFP-ERK2 was immunoprecipitated from VOOH stimulated (Act) or non-stimulated (NT), transfected COS7 cells as above. The immunoprecipitated protein was then incubated with shrimp's alkaline phosphates (SAP, 15 units, 30 min, 30° C. in the manufacturer digestion buffer), and subjected to Western blot analysis with anti phosphoSPS-ERK (αpSPS; FIG. 4C), anti phosphoTEY-ERK (αpTEY; FIG. 4D), and anti general-ERK Ab (αgen-ERK; FIGS. 4C, D). FIG. 4E. Elevation of anti pSPS Ab immunoreactivity upon stimulation of endogenous ERKs. Following serum starvation COS7 cells were treated with EGF (50 ng/ml) or VOOH (V, 100 μM Na3VO4 and 200 μM H2O2) for the indicated times. SPS phosphorylation was detected using the anti pSPS Abs, and this was compared to the amount of genral ERKs detected by αgERK. FIG. 4F. Specificity of the anti pSPS Ab. COS7 cells overexpressing either GFP-ERK2 or 244-6A mutant were serum starved for 16 hr, and then treated with EGF (50 ng/ml) for 15 min following WB analysis using αpSPS and αgERK Abs. FIG. 4G. TEY phosphorylation is not required for SPS phosphorylation. COS7 cells overexpressing WT-ERK2 or TEY-AAA were treated as described in D. FIG. 4H. COS7 cells were treated with or without UO126 prior (15 min) to EGF (50 ng/ml) stimulation for the indicated times. SPS-phosphorylation was detected using αpSPS and αgERK Abs. FIG. 4I. Phosphorylation of SPS is mediated by ERK autophosphorylation. […] The phosphorylation (^32P-ERK2) of ERK and its mutants was detected by autoradiography. […]
FIG. 9B is an autoradiograph illustrating that stimulation elevates pSPS phosphorylation of 2GFP-SPS construct. […] The total amount of immunoprecipitated 2GFP-SPS was detected with αGFP Ab. […]

importin-7 = target: T1, importin-7 (Homo sapiens, UniProt O95373); assay: Coimmunoprecipitation with importin-7; format: binding; conditions: HeLa cells
T1 construct: endogenous in cells; host or cells: HeLa
Procedure: FIGS. 19A-19C are autoradiographs illustrating that phospho-SPS interacts with importin-7 and releases Nup153c binding without involvment of importin-β. […]. Interaction of ERK2 with Importin-7 is enhanced by EGF stimulation and EPE mutation. HeLa cells overexpressing WT-ERK (WT), ERK-APA (APA), ERK-EPE (EPE) or GFP were serum starved and treated with EGF (50 ng/ml, 10 min). The extracts of the treated cells were then subjected to coimmunoprecipitation using A/G beads pre-conjugated with anti GFP Ab and mild washes. The coimmunoprecipitated importin-7 (first panel) and importin-β (third panel), as well as their loading amounts (panels 2 and 4 respectively) were determined by WB using anti importin-7 (αImp7) and importin-β (αImpβ) Abs. The equal amount of immunoprecipitated ERKs was determined with anti GFP (αGFP; IP) Ab. FIG. 19B. Interaction of 2GFP-SPS and its mutants with importin-7. HeLa cells overexpressing 2GFP, 2GFP-SPS, 2GFP-APA and 2GFP-EPE constructs were subjected to coimmunoprecipitation as described in FIG. 19A (without EGF stimulation). FIG. 19C. Interaction of NUP153 with WTERK2 and its APA and EPE mutants. NUP153c is elevated in APA-ERK2, but reduced in EPE-ERK2. Immunoprecipitated and stringently washed WT-ERK2 (WT), APA-ERK2 (APA) or ERK2 from […] cells pre-treated with or without TPA (250 nM, 15 min) were incubated with 0.5 μg recombinant His-Nup153c. This was followed by mild washing, and the beads were then subjected to Western blot analysis using anti His (αHis) and anti αGFP Abs.
Immunoprecipitation. Cellular extracts of stimulated transfected cells, were incubated with anti-GFP antibody preconugated to A/G beads (Santa Cruz; (2 hr, 4° C.). Subsequently, the beads were washed twice with HNTG buffer and once with 0.5 M LiCl. The immunoprecipitates were subjected either to Western blotting as described above or to an in vitro phosphatase assay as described under Results.

T1 sequence (O95373 whole entry): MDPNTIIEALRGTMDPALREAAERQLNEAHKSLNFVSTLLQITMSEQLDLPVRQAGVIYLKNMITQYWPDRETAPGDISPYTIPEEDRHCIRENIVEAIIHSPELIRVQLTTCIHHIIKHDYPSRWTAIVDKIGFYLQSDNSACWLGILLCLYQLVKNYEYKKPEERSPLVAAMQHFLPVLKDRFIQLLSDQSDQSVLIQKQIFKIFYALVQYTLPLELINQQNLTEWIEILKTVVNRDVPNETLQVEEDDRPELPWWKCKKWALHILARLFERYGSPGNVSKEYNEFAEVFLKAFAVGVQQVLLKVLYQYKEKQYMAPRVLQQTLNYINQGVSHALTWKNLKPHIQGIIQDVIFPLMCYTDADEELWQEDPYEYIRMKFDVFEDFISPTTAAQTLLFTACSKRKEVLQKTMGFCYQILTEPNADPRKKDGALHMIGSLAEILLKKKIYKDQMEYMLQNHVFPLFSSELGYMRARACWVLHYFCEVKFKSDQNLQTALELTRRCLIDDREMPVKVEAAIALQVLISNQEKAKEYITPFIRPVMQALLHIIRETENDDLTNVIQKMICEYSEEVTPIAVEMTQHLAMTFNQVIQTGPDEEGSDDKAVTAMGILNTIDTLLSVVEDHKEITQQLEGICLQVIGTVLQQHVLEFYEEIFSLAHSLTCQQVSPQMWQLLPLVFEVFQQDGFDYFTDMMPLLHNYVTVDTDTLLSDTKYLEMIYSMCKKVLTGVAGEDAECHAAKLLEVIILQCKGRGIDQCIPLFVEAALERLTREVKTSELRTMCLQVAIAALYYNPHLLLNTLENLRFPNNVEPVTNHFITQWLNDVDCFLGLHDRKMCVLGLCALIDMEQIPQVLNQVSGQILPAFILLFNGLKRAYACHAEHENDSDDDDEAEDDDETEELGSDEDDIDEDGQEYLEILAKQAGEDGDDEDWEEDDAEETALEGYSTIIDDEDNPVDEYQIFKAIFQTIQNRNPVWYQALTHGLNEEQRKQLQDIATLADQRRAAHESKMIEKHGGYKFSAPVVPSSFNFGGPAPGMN

Row | Substance | SPS phosphorylation upon stimulation (anti pSPS Ab recognition) (SPS domain) | interaction of 2GFP constructs with importin-7 (importin-7; coimmunoprecipitation, without EGF stimulation) | time of peak SPS phosphorylation (SPS domain; following EGF stimulation) [min] | interaction of ERK2 constructs with importin-7 (importin-7; coimmunoprecipitation with anti GFP Ab, with or without stimulation)
1 | 2GFP-SPS: 2GFP with the 19 amino acid stretch containing the SPS of ERK2 (SEQ ID NO: 6) fused to its C terminus (2GFP-LDQLNHILGILGSPSQEDL) | elevates | did bind importin-7 | – | –
2 | WT-ERK2: wild-type ERK2 fused to GFP, prepared in pEGFP C1 [reference compound] | significantly increased | – | 15 | significantly increased upon TPA stimulation
